Bridge positions count the residues as written; N and C are the ends. Square brackets hold non-standard residues; d marks the D form. Peptide text beside a SMILES is read from it. * marks the point of attachment. ξ: configuration not given here. Tyr(3-NO2) = N[C@@H](Cc1ccc(O)c([N+](=O)[O-])c1)C(=O)O; dPhe(3-NO2) = N[C@H](Cc1cccc([N+](=O)[O-])c1)C(=O)O; Phe(4-COOH) = N[C@@H](Cc1ccc(C(=O)O)cc1)C(=O)O; Phe(2,4-Cl2) = N[C@@H](Cc1ccc(Cl)cc1Cl)C(=O)O; Bip = N[C@@H](Cc1ccc(-c2ccccc2)cc1)C(=O)O; Phe(4-CN) = N#Cc1ccc(C[C@H](N)C(=O)O)cc1; Phe(3-Me) = Cc1cccc(C[C@H](N)C(=O)O)c1; aIle = CC[C@@H](C)[C@H](N)C(=O)O; 3Pal = N[C@@H](Cc1cccnc1)C(=O)O; 4Pal = N[C@@H](Cc1ccncc1)C(=O)O; Cha = N[C@@H](CC1CCCCC1)C(=O)O; Cit = NC(=O)NCCC[C@H](N)C(=O)O; AllylGly = C=CC[C@H](N)C(=O)O; Pip = O=C(O)[C@@H]1CCCCN1; Carboxymethyl = O=C(O)C*; NMeA = CN[C@@H](C)C(=O)O; Pra = C#CC[C@H](N)C(=O)O; Dab = NCC[C@H](N)C(=O)O; Dap = NC[C@H](N)C(=O)O; ξV = CC(C)C(N)C(=O)O; ξC = NC(CS)C(=O)O
biological target: T1, PE-labeled human PD-L1-Ig binding to Jurkat cell line over-expressing human PD-1 (Jurkat-PD-1) (Homo sapiens, UniProt Q15116); assay: Jurkat-PD-1 Cell Binding High-Content Screening Assay (CBA): Method 1; details: Jurkat-hPD-1 cells, PE-labeled PD-L1-Ig 20 nM final; read-out: Jurkat HPDL1 PD1 IC50 (uM) (Method 1)
T1 construct: expressed in transfected cells; host or cells: Jurkat
T1 sequence (Q15116 25-288): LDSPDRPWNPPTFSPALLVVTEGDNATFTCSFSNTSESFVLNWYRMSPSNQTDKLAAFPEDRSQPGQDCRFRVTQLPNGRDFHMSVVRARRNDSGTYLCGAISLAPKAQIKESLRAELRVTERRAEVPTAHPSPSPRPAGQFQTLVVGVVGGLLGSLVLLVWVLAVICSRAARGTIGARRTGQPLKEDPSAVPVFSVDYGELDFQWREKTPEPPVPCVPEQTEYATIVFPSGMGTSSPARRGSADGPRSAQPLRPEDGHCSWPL

| Compound | IC50 [µM] |
| --- | --- |
| CC(C)C[C@@H]1NC(=O)[C@H](C)NC(=O)[C@@H](C)NC(=O)[C@H](C)N(C)C(=O)[C@H](CCC(=O)O)NC(=O)[C@H](Cc2ccc(-c3ccccc3)cc2)NC(=O)[C@H](CC(C)C)NC(=O)[C@H](Cc2c[nH]c3ccccc23)NC(=O)[C@H](CC(=O)O)NC(=O)[C@H](Cc2ccc(C(=O)O)cc2)NC(=O)[C@H](Cc2cccnc2)NC(=O)CSC[C@@H](C(=O)N[C@@H](C)C(N)=O)NC(=O)[C@H](CO)NC(=O)[C@H](C(C)C)NC1=O [Compound 1786] ({CH2CO}-[3Pal][Phe(4-COOH)]DWL[Bip]E[NMeA][dA]ALVSCA-NH2; thioether N-14) | 0.1 |
| CC(C)C[C@@H]1NC(=O)[C@H](CCN)NC(=O)[C@@H](CC(C)C)NC(=O)[C@H](C)N(C)C(=O)[C@H](CCCNC(N)=O)NC(=O)[C@H](Cc2ccc(-c3ccccc3)cc2)NC(=O)[C@H](C(C)C)NC(=O)[C@H](Cc2c[nH]c3ccccc23)NC(=O)[C@H](CC(=O)O)NC(=O)[C@H](Cc2ccc(C#N)cc2)NC(=O)[C@H](CN)NC(=O)CSC[C@@H](C(=O)N[C@@H](C)C(N)=O)NC(=O)[C@H]([C@@H](C)O)NC(=O)[C@H](C(C)C)NC1=O [Compound 1408] ({CH2CO}-[Dap][Phe(4-CN)]DWV[Bip][Cit][NMeA][dL][Dab]LVTCA-NH2; thioether N-14) | 0.1 |
| CC(C)C[C@@H]1NC(=O)[C@H](CCN)NC(=O)[C@@H](CC(C)C)NC(=O)[C@H](C)N(C)C(=O)[C@H](Cc2cnc[nH]2)NC(=O)[C@H](Cc2ccc(-c3ccccc3)cc2)NC(=O)[C@H](C(C)C)NC(=O)[C@H](Cc2c[nH]c3ccccc23)NC(=O)[C@H](CC(=O)O)NC(=O)[C@H](Cc2ccc(C(=O)O)cc2)NC(=O)[C@H](CC(N)=O)NC(=O)CSC[C@@H](C(=O)N[C@@H](C)C(N)=O)NC(=O)[C@H]([C@@H](C)O)NC(=O)[C@H](C(C)C)NC1=O [Compound 1383] ({CH2CO}-N[Phe(4-COOH)]DWV[Bip]H[NMeA][dL][Dab]LVTCA-NH2; thioether N-14) | 0.06 |
| CC(C)C[C@@H]1NC(=O)[C@H](Cc2c[nH]c3ccccc23)NC(=O)[C@H](CC(=O)O)NC(=O)[C@H](Cc2ccc(O)cc2)NC(=O)[C@H](Cc2ccccc2)NC(=O)CSC[C@@H](C(=O)N[C@@H](C)C(N)=O)NC(=O)[C@H](CO)NC(=O)[C@H](CCCCN)NC(=O)[C@H](CC(C)C)NC(=O)[C@H](CC(N)=O)NC(=O)[C@@H](CC(C)C)NC(=O)[C@H](C)N(C)C(=O)[C@H](C(C)C)NC(=O)[C@H](Cc2ccc(-c3ccccc3)cc2)NC1=O [Compound 1536] ({CH2CO}-FYDWL[Bip]V[NMeA][dL]NLKSCA-NH2; thioether N-14) | 0.01 |
| CC[C@@H](C)[C@@H]1NC(=O)[C@H](Cc2ccc(-c3ccccc3)cc2)NC(=O)[C@H](CC(C)C)NC(=O)[C@H](Cc2c[nH]c3ccccc23)NC(=O)[C@H](CC(=O)O)NC(=O)[C@H](Cc2ccc(C(=O)O)cc2)NC(=O)[C@H](Cc2ccc(OCC(=O)O)cc2)NC(=O)CSC[C@@H](C(=O)N[C@@H](CCCCN)C(N)=O)NC(=O)[C@H](CN)NC(=O)C(C(C)C)NC(=O)[C@H](CC(C)C)NC(=O)[C@H](CC(N)=O)NC(=O)[C@@H](CC(C)C)NC(=O)[C@H](C)N(C)C1=O (stereo partly drawn) [Compound 2108] ({CH2CO}-Y(Carboxymethyl)[Phe(4-COOH)]DWL[Bip][aIle][NMeA][dL]NL[ξV][Dap]CK-NH2; thioether N-14) | 0.11 |
| CC(C)C[C@@H]1NC(=O)[C@H](CCCNC(=N)N)NC(=O)[C@@H](Cc2cccc([N+](=O)[O-])c2)NC(=O)[C@H](C)N(C)C(=O)[C@H](CCCNC(=N)N)NC(=O)[C@H](Cc2ccc(-c3ccccc3)cc2)NC(=O)[C@H](C(C)C)NC(=O)[C@H](Cc2c[nH]c3ccccc23)NC(=O)[C@H](CC(=O)O)NC(=O)[C@H](Cc2ccc(O)cc2)NC(=O)[C@H](Cc2ccccc2)NC(=O)CSC[C@@H](C(=O)N[C@@H](C)C(N)=O)NC(=O)[C@H]([C@@H](C)O)NC(=O)[C@H](C(C)C)NC1=O [Compound 1074] ({CH2CO}-FYDWV[Bip]R[NMeA][dPhe(3-NO2)]RLVTCA-NH2; thioether N-14) | 0.11 |
| CC(C)C[C@@H]1NC(=O)[C@H](CCN)NC(=O)[C@@H](CC(C)C)NC(=O)[C@H](C)N(C)C(=O)[C@H](Cc2cnc[nH]2)NC(=O)[C@H](Cc2ccc(-c3ccccc3)cc2)NC(=O)[C@H](C(C)C)NC(=O)[C@H](Cc2c[nH]c3ccccc23)NC(=O)[C@H](CC(=O)O)NC(=O)[C@H](Cc2ccc(O)cc2)NC(=O)[C@H](CC(N)=O)NC(=O)CSC[C@@H](C(=O)N[C@@H](C)C(N)=O)NC(=O)[C@H]([C@@H](C)O)NC(=O)[C@H](C(C)C)NC1=O [Compound 1302] ({CH2CO}-NYDWV[Bip]H[NMeA][dL][Dab]LVTCA-NH2; thioether N-14) | 0.02 |
| Cc1cccc(C[C@@H]2NC(=O)[C@H](Cc3ccccc3)NC(=O)CSC[C@@H](C(=O)NCC(N)=O)NC(=O)[C@H](CO)NC(=O)[C@H](C(C)C)NC(=O)[C@H](CC(C)C)NC(=O)[C@H](CC(N)=O)NC(=O)[C@@H](CC(C)C)NC(=O)[C@H](C)N(C)C(=O)[C@H](C(C)C)NC(=O)[C@H](Cc3ccc(-c4ccccc4)cc3)NC(=O)[C@H](CC(C)C)NC(=O)[C@H](Cc3c[nH]c4ccccc34)NC(=O)[C@H](CC(=O)O)NC2=O)c1 [Compound 1518] ({CH2CO}-F[Phe(3-Me)]DWL[Bip]V[NMeA][dL]NLVSCG-NH2; thioether N-14) | 0.05 |
| C=CC[C@@H]1NC(=O)[C@H](Cc2cccc(C)c2)NC(=O)[C@H](CC(=O)O)NC(=O)[C@H](Cc2ccncc2)NC(=O)[C@H](Cc2ccc(OCC(=O)O)cc2)NC(=O)CSCC(C(=O)NCC(N)=O)NC(=O)[C@H](CO)NC(=O)[C@H](C(C)C)NC(=O)[C@H](CC(C)C)NC(=O)[C@H](CC(N)=O)NC(=O)[C@@H](CC(C)C)NC(=O)[C@H](C)N(C)C(=O)[C@H](CC=C)NC(=O)[C@H](Cc2ccc(-c3ccccc3)cc2)NC1=O (stereo partly drawn) [Compound 1883] ({CH2CO}-Y(Carboxymethyl)[4Pal]D[Phe(3-Me)][AllylGly][Bip][AllylGly][NMeA][dL]NLVS[ξC]G-NH2; thioether N-14) | 0.06 |
| CC(C)C[C@@H]1NC(=O)[C@H](CCN)NC(=O)[C@@H](CC(C)C)NC(=O)[C@H](C)N(C)C(=O)[C@H](CCCNC(=N)N)NC(=O)[C@H](Cc2ccc(-c3ccccc3)cc2)NC(=O)[C@H](C(C)C)NC(=O)[C@H](Cc2c[nH]c3ccccc23)NC(=O)[C@H](CC(=O)O)NC(=O)[C@H](Cc2ccc(O)cc2)NC(=O)[C@H](CN)NC(=O)CSC[C@@H](C(=O)N[C@@H](C)C(N)=O)NC(=O)[C@H]([C@@H](C)O)NC(=O)[C@H](C(C)C)NC1=O [Compound 1350] ({CH2CO}-[Dap]YDWV[Bip]R[NMeA][dL][Dab]LVTCA-NH2; thioether N-14) | 0.03 |
| CC(C)C[C@@H]1NC(=O)[C@H](CCCNC(=N)N)NC(=O)[C@@H](Cc2ccccc2)NC(=O)[C@H](C)N(C)C(=O)[C@H](CCCNC(=N)N)NC(=O)[C@H](Cc2ccc(-c3ccccc3)cc2)NC(=O)[C@H](C(C)C)NC(=O)[C@H](Cc2c[nH]c3ccccc23)NC(=O)[C@H](CC(=O)O)NC(=O)[C@H](Cc2ccc(O)c([N+](=O)[O-])c2)NC(=O)[C@H](CC(N)=O)NC(=O)CSC[C@@H](C(=O)N[C@@H](C)C(N)=O)NC(=O)[C@H]([C@@H](C)O)NC(=O)[C@H](C(C)C)NC1=O [Compound 1167] ({CH2CO}-N[Tyr(3-NO2)]DWV[Bip]R[NMeA][dF]RLVTCA-NH2; thioether N-14) | 0.1 |
| Cc1cccc(C[C@@H]2NC(=O)[C@H](CC(=O)O)NC(=O)[C@H](Cc3ccc(OCC(=O)O)cc3)NC(=O)[C@H](CN)NC(=O)CSC[C@@H](C(N)=O)NC(=O)[C@H](CCC(N)=O)NC(=O)[C@H](C(C)C)NC(=O)[C@H](CC3CCCCC3)NC(=O)[C@H](CCN)NC(=O)[C@@H](CC(C)C)NC(=O)[C@@H]3CCCCN3C(=O)[C@H](Cc3ccc(OCC(=O)O)cc3)NC(=O)[C@H](Cc3ccc(-c4ccccc4)cc3)NC(=O)[C@H](Cc3ccc(OCC(=O)O)cc3)NC2=O)c1 [Compound 1896] ({CH2CO}-[Dap]Y(Carboxymethyl)D[Phe(3-Me)]Y(Carboxymethyl)[Bip]Y(Carboxymethyl)[Pip][dL][Dab][Cha]VQC-NH2; thioether N-14) | 0.19 |
| CC(C)C[C@@H]1NC(=O)[C@H](Cc2c[nH]c3ccccc23)NC(=O)[C@H](CC(=O)O)NC(=O)[C@H](Cc2ccc(Cl)cc2Cl)NC(=O)[C@H](Cc2ccccc2)NC(=O)CSC[C@@H](C(=O)N[C@@H](C)C(N)=O)NC(=O)[C@H](CO)NC(=O)[C@H](C(C)C)NC(=O)[C@H](CC(C)C)NC(=O)[C@H](CC(N)=O)NC(=O)[C@@H](C)NC(=O)[C@H](C)N(C)C(=O)[C@H](C(C)C)NC(=O)[C@H](Cc2ccc(-c3ccccc3)cc2)NC1=O [Compound 1810] ({CH2CO}-F[Phe(2,4-Cl2)]DWL[Bip]V[NMeA][dA]NLVSCA-NH2; thioether N-14) | 0.28 |
| C#CC[C@H](NC(=O)CNC(=O)[C@@H]1CSCC(=O)N[C@@H](Cc2ccc(OCC(=O)O)cc2)C(=O)N[C@@H](Cc2ccc(C(=O)O)cc2)C(=O)N[C@@H](CC(=O)O)C(=O)N[C@@H](Cc2c[nH]c3ccccc23)C(=O)N[C@@H](CC(C)C)C(=O)N[C@@H](Cc2ccc(-c3ccccc3)cc2)C(=O)N[C@@H](C(C)C)C(=O)N(C)[C@@H](C)C(=O)N[C@H](CC(C)C)C(=O)N[C@@H](CCN)C(=O)N[C@@H](CC2CCCCC2)C(=O)N[C@@H](C(C)C)C(=O)N[C@@H](CO)C(=O)N1)C(=O)O [Compound 1934] ({CH2CO}-Y(Carboxymethyl)[Phe(4-COOH)]DWL[Bip]V[NMeA][dL][Dab][Cha]VSCG[Pra]-OH; thioether N-14) | 0.01 |
| CC(C)C[C@@H]1NC(=O)[C@H](Cc2c[nH]c3ccccc23)NC(=O)[C@H](CC(=O)O)NC(=O)[C@H](Cc2ccc(O)cc2)NC(=O)[C@H](Cc2ccccc2)NC(=O)CSC[C@@H](C(=O)N[C@@H](C)C(N)=O)NC(=O)[C@H](CO)NC(=O)[C@H](C(C)C)NC(=O)[C@H](CC(C)C)NC(=O)[C@H](CC(N)=O)NC(=O)[C@@H](CCC(=O)O)NC(=O)[C@H](C)N(C)C(=O)[C@H](C(C)C)NC(=O)[C@H](Cc2ccc(-c3ccccc3)cc2)NC1=O [Compound 1820] ({CH2CO}-FYDWL[Bip]V[NMeA][dE]NLVSCA-NH2; thioether N-14) | 0.48 |
